Assays:
BCL6 [1] = target: T1, BCL6 (Homo sapiens (Human), UniProt P41182); assay: BCL6 TR-FRET assay (BCL6-Avitag-Biotin / BCoR-Cy5 peptide); type: binding
Summary of the method: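 After 30 min room-temperature preincubation of compound titrations with 2 nM biotinylated BCL6-Avitag, 100 nM Cy5-labelled BCoR peptide plus 2 nM Eu-streptavidin were added and TR-FRET read 2 h later. HEPES pH 7.5/125 mM NaCl buffer with Triton X, glutathione (or DTT) and BSA.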

BCL6 [2] = target: T1, BCL6; assay: Immunofluorescence high content imaging of BCL6 degradation in T47D cells; type: cell-based; details: for Dmax: T47D; for DC50: class symbols A-D, read-out: EC50 (nM)*
Summary of the method: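 T47D cells were treated for 3 days at 37 °C with 11-point 3-fold dilutions of bifunctional degrader (final top 0.1 or 1 μM). BCL6 was detected by immunofluorescence after PFA fixation, with Hoechst and cell mask counterstains, and imaged at 10×, 4 fields/well.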

[3] = class symbols A-D, read-out: IC50 (nM)***

Compound | IC50 (BCL6 [1]; read-out: IC50) [nM] | Dmax (BCL6 [2]) [%] | EC50 (BCL6 [1]) [nM] | IC50 (BCL6 [2]) [nM] | IC50 (BCL6 [1]; [3]) [nM] | Dmax (BCL6 [2]; maximum, class symbols A-C) [%] | DC50 (BCL6 [2]) [nM]
CNC(=O)COc1cc2cc(Nc3nc(N4CCC5(CC4)CCN(C4CCN(c6cccc7c6C(=O)N(C6CCC(=O)NC6=O)C7=O)CC4)C5)ncc3Cl)ccc2n(C(C)C)c1=O (stereo not drawn) [compound 520, 2-[(6-{[5-chloro-2-(2-{1-[2-(2,6-dioxopiperidin-3-yl)-1,3-dioxo-2,3-dihydro-1H-isoindol-4-yl]piperidin-4-yl}-2,8-diazaspiro[4.5]decan-8-yl)pyrimidin-4-yl]amino}-2-oxo-1-(propan-2-yl)-1,2-dihydroquinolin-3-yl)oxy]-N-methylacetamide] | < 10 | < 50 | – | – | – | – | –
CNC(=O)COc1cc2cc(Nc3nc(N4CCC(OC5CC6(CCN(c7cccc8c7CN(C7CCC(=O)NC7=O)C8=O)CC6)C5)CC4)ncc3Cl)ccc2n(C(C)C)c1=O (stereo not drawn) [compound 446, 2-{[6-({5-chloro-2-[4-({7-[2-(2,6-dioxopiperidin-3-yl)-1-oxo-2,3-dihydro-1H-isoindol-4-yl]-7-azaspiro[3.5]nonan-2-yl}oxy)piperidin-1-yl]pyrimidin-4-yl}amino)-2-oxo-1-(propan-2-yl)-1,2-dihydroquinolin-3-yl]oxy}-N-methylacetamide] | < 10 | ≥ 70 | – | – | – | – | –
CNC(=O)COc1cc2cc(Nc3nc(N4CCN(CC5CCC6(CC5)CN(c5cccc7c5C(=O)N(C5CCC(=O)NC5=O)C7=O)C6)CC4)ncc3Cl)ccc2n(C(C)C)c1=O (stereo not drawn) [compound 452, 2-{[6-({5-chloro-2-[4-({2-[2-(2,6-dioxopiperidin-3-yl)-1,3-dioxo-2,3-dihydro-1H-isoindol-4-yl]-2-azaspiro[3.5]nonan-7-yl}methyl)piperazin-1-yl]pyrimidin-4-yl}amino)-2-oxo-1-(propan-2-yl)-1,2-dihydroquinolin-3-yl]oxy}-N-methylacetamide] | < 10 | ≥ 70 | – | – | – | – | –
CNC(=O)COc1cc2cc(Nc3nc(N4CCCN(CC5CCN(c6ccc7c(c6)C(=O)N(C6CCC(=O)NC6=O)C7=O)CC5)CC4)ncc3Cl)ccc2n(C)c1=O (stereo not drawn) [compound 215, 2-((6-((5-chloro-2-(4-((1-(2-(2,6-dioxopiperidin-3-yl)-1,3-dioxoisoindolin-5-yl)piperidin-4-yl)methyl)-1,4-diazepan-1-yl)pyrimidin-4-yl)amino)-1-methyl-2-oxo-1,2-dihydroquinolin-3-yl)oxy)-N-methylacetamide] | – | < 50 | 50 to 100 | 10 to 50 | – | – | –
CNC(=O)COc1cc2cc(Nc3nc(N4CCC(CN5CCN(c6ccc7c(c6)C(=O)N(C6CCC(=O)NC6=O)C7=O)CC5=O)CC4)ncc3Cl)ccc2n(C)c1=O (stereo not drawn) [compound 196, 2-((6-((5-chloro-2-(4-((4-(2-(2,6-dioxopiperidin-3-yl)-1,3-dioxoisoindolin-5-yl)-2-oxopiperazin-1-yl)methyl)piperidin-1-yl)pyrimidin-4-yl)amino)-1-methyl-2-oxo-1,2-dihydroquinolin-3-yl)oxy)-N-methylacetamide] | – | 50 to 70 | 10 to 50 | 10 to 50 | – | – | –
CNC(=O)COc1cc2cc(Nc3nc(N4CCC(OC5CN(c6ccc7c(c6)C(=O)N(C6CCC(=O)NC6=O)C7=O)C5)CC4)ncc3Cl)ccc2n(C)c1=O (stereo not drawn) [compound 227, 2-((6-((5-chloro-2-(4-((1-(2-(2,6-dioxopiperidin-3-yl)-1,3-dioxoisoindolin-5-yl)azetidin-3-yl)oxy)piperidin-1-yl)pyrimidin-4-yl)amino)-1-methyl-2-oxo-1,2-dihydroquinolin-3-yl)oxy)-N-methylacetamide] | – | < 50 | > 100 | < 10 | – | – | –
CNC(=O)COc1cc2cc(Nc3nc(N4CCC(CN5CC6(CCN(c7ccc8c(c7)C(=O)N(C7CCC(=O)NC7=O)C8=O)C6)C5)CC4)ncc3Cl)ccc2n(C(C)C)c1=O (stereo not drawn) [compound 500, 2-{[6-({5-chloro-2-[4-({6-[2-(2,6-dioxopiperidin-3-yl)-1,3-dioxo-2,3-dihydro-1H-isoindol-5-yl]-2,6-diazaspiro[3.4]octan-2-yl}methyl)piperidin-1-yl]pyrimidin-4-yl}amino)-2-oxo-1-(propan-2-yl)-1,2-dihydroquinolin-3-yl]oxy}-N-methylacetamide] | < 10 | 50 to 70 | – | – | – | – | –
CC(=O)COc1cc2cc(Nc3nc(N4CCC(CCOC5CN(c6ccc7c(c6)C(=O)N(C6CCC(=O)NC6=O)C7=O)C5)CC4)ncc3Cl)ccc2n(C)c1=O (stereo not drawn) [compound 164, 5-(3-(2-(1-(5-chloro-4-((1-methyl-2-oxo-3-(2-oxopropoxy)-1,2-dihydroquinolin-6-yl)amino)pyrimidin-2-yl)piperidin-4-yl)ethoxy)azetidin-1-yl)-2-(2,6-dioxopiperidin-3-yl)isoindoline-1,3-dione] | – | – | – | – | 10 to 50 | < 50 | > 100
CNC(=O)COc1cc2cc(Nc3nc(N4CCC5(CC4)CCN(C4CCN(c6ccc7c(c6)C(=O)N(C6CCC(=O)NC6=O)C7=O)CC4)C5)ncc3Cl)ccc2n(C(C)C)c1=O (stereo not drawn) [compound 514, 2-[(6-{[5-chloro-2-(2-{1-[2-(2,6-dioxopiperidin-3-yl)-1,3-dioxo-2,3-dihydro-1H-isoindol-5-yl]piperidin-4-yl}-2,8-diazaspiro[4.5]decan-8-yl)pyrimidin-4-yl]amino}-2-oxo-1-(propan-2-yl)-1,2-dihydroquinolin-3-yl)oxy]-N-methylacetamide] | < 10 | < 50 | – | – | – | – | –
CNC(=O)COc1cc2cc(Nc3nc(N4CCC5(CC4)CN(CC4CCN(c6cccc(C(=O)NC7CCC(=O)NC7=O)c6F)CC4)C5)ncc3Cl)ccc2n(C(C)C)c1=O (stereo not drawn) [compound 450, 3-[4-({7-[5-chloro-4-({3-[(methylcarbamoyl)methoxy]-2-oxo-1-(propan-2-yl)-1,2-dihydroquinolin-6-yl}amino)pyrimidin-2-yl]-2,7-diazaspiro[3.5]nonan-2-yl}methyl)piperidin-1-yl]-N-(2,6-dioxopiperidin-3-yl)-2-fluorobenzamide] | < 10 | ≥ 70 | – | – | – | – | –
CNC(=O)COc1cc2cc(Nc3nc(N4CCC(CN5CCN(c6ccc7c(c6)C(=O)N(C6CCC(=O)NC6=O)C7=O)CC5)CC4)ccc3Cl)ccc2n(C)c1=O (stereo not drawn) [compound 202, 2-((6-((3-chloro-6-(4-((4-(2-(2,6-dioxopiperidin-3-yl)-1,3-dioxoisoindolin-5-yl)piperazin-1-yl)methyl)piperidin-1-yl)pyridin-2-yl)amino)-1-methyl-2-oxo-1,2-dihydroquinolin-3-yl)oxy)-N-methylacetamide] | – | < 50 | > 100 | 50 to 100 | – | – | –
CNC(=O)COc1cc2cc(Nc3nc(N4CCOC(CN5CCN(c6cccc7c6C(=O)N(C6CCC(=O)NC6=O)C7=O)CC5)C4)ncc3Cl)ccc2n(C)c1=O (stereo not drawn) [compound 271, 2-{[6-({5-chloro-2-[2-({4-[2-(2,6-dioxopiperidin-3-yl)-1,3-dioxo-2,3-dihydro-1H-isoindol-4-yl]piperazin-1-yl}methyl)morpholin-4-yl]pyrimidin-4-yl}amino)-1-methyl-2-oxo-1,2-dihydroquinolin-3-yl]oxy}-N-methylacetamide] | – | 50 to 70 | 10 to 50 | 50 to 100 | – | – | –
CNC(=O)COc1cc2cc(Nc3nc(N4CCN(CCN5CCN(c6ccc7c(c6)C(=O)N(C6CCC(=O)NC6=O)C7=O)CC5)CC4)ncc3Cl)ccc2n(C)c1=O (stereo not drawn) [compound 229, 2-((6-((5-chloro-2-(4-(2-(4-(2-(2,6-dioxopiperidin-3-yl)-1,3-dioxoisoindolin-5-yl)piperazin-1-yl)ethyl)piperazin-1-yl)pyrimidin-4-yl)amino)-1-methyl-2-oxo-1,2-dihydroquinolin-3-yl)oxy)-N-methylacetamide] | – | 50 to 70 | 10 to 50 | 10 to 50 | – | – | –
CNC(=O)[C@H](C)Oc1cc2cc(Nc3nc(N4CCC(CN5CCN(c6ccc7c(c6)C(=O)N([C@@H]6CCC(=O)NC6=O)C7=O)CC5)CC4)ncc3Cl)ccc2n(C)c1=O [compound 213, (S)-2-((6-((5-chloro-2-(4-((4-(2-((R)-2,6-dioxopiperidin-3-yl)-1,3-dioxoisoindolin-5-yl)piperazin-1-yl)methyl)piperidin-1-yl)pyrimidin-4-yl)amino)-1-methyl-2-oxo-1,2-dihydroquinolin-3-yl)oxy)-N-methylpropanamide] | – | – | > 100 | ≥ 100 | – | – | –
CNC(=O)COc1cc2cc(Nc3nc(N4CCN(CC5CC6(C5)CN(c5cccc7c5C(=O)N(C5CCC(=O)NC5=O)C7=O)C6)CC4)ncc3Cl)ccc2n(C(C)C)c1=O (stereo not drawn) [compound 529, 2-{[6-({5-chloro-2-[4-({2-[2-(2,6-dioxopiperidin-3-yl)-1,3-dioxo-2,3-dihydro-1H-isoindol-4-yl]-2-azaspiro[3.3]heptan-6-yl}methyl)piperazin-1-yl]pyrimidin-4-yl}amino)-2-oxo-1-(propan-2-yl)-1,2-dihydroquinolin-3-yl]oxy}-N-methylacetamide] | < 10 | 50 to 70 | – | – | – | – | –
CC(=O)COc1cc2cc(Nc3nc(N4CCC(CN5CC6(C5)CN(c5ccc7c(c5)C(=O)N(C5CCC(=O)NC5=O)C7=O)C6)CC4)ncc3Cl)ccc2n(C)c1=O (stereo not drawn) [compound 165, 5-(6-((1-(5-chloro-4-((1-methyl-2-oxo-3-(2-oxopropoxy)-1,2-dihydroquinolin-6-yl)amino)pyrimidin-2-yl)piperidin-4-yl)methyl)-2,6-diazaspiro[3.3]heptan-2-yl)-2-(2,6-dioxopiperidin-3-yl)isoindoline-1,3-dione] | – | – | – | – | 10 to 50 | 50 to 70 | 10 to 50
CC(=O)c1cc2cc(Nc3nc(N4CCC(CN5CCN(c6ccc7c(c6)C(=O)N(C6CCC(=O)NC6=O)C7=O)CC5)CC4)ncc3Cl)ccc2n(C)c1=O (stereo not drawn) [compound 206, 5-(4-((1-(4-((3-acetyl-1-methyl-2-oxo-1,2-dihydroquinolin-6-yl)amino)-5-chloropyrimidin-2-yl)piperidin-4-yl)methyl)piperazin-1-yl)-2-(2,6-dioxopiperidin-3-yl)isoindoline-1,3-dione] | – | – | > 100 | 50 to 100 | – | – | –

From patent US12310975B2, “Modulators of BCL6 proteolysis and associated methods of use” (Arvinas Operations, Inc., priority 2019, dated 2025)
